Legend:
[1] = biological target: IDH1 R132H (Homo sapiens, UniProt O75874, R132H); test: Enzymatic inhibition assay, mutant IDH1 R132H (NADPH depletion coupled to diaphorase/resazurin); format: biochemical; details: IDH1 R132H enzyme, IC50 class
Method: (§1) Assays were conducted in a 1536-well black solid-bottom plate with a final assay volume of 9 μL.
Specifically, for IDH1 R132H, 3 μL of enzyme (4 mM β-ME, 0.0005 mg/mL IDH1 R132H, 150 mM NaCl, 20 mM Tris pH 7.5, 10 mM MgCl2, 0.05% BSA) were added to the plate, followed by the addition of 23 nL of test compound in DMSO. The plate was lidded and incubated at room temperature for 30 minutes at which time 3 μL of substrate were added (0.016 mM NADPH, 2 mM α-KG, 150 mM NaCl, 20 mM Tris pH 7.5, 10 mM MgCl2, 0.05% BSA). This reaction was incubated at room-temperature for 60 minutes at which time the detection mix was added (0.06 mg/mL diaphorase, 0.036 mM resazurin, 150 mM NaCl, 20 mM Tris pH 7.5, 10 mM MgCl2, 0.05% BSA). […]

[2] = biological target: IDH1 R132C (Homo sapiens, UniProt O75874, R132C); test: Enzymatic inhibition assay, mutant IDH1 R132C (NADPH depletion coupled to diaphorase/resazurin); format: biochemical; details: IDH1 R132C enzyme, IC50 class
Method: as §1
For IDH1 R132C, 3 μL of enzyme (0.00032 mg/mL IDH1 R132H, 10% glycerol, 50 mM potassium phosphate pH 6.5, 5 mM MgCl2, 0.03% BSA) were added to the plate, followed by the addition of 23 nL of test compound in DMSO. The plate was lidded and incubated at room temperature for 30 minutes at which time 3 μL of substrate were added (0.012 mM NADPH, 0.6 mM α-KG, 10% glycerol, 50 mM potassium phosphate pH 6.5, 5 mM MgCl2, 0.03% BSA). […]

IDH1 R132C, sequence (O75874 whole entry R132C): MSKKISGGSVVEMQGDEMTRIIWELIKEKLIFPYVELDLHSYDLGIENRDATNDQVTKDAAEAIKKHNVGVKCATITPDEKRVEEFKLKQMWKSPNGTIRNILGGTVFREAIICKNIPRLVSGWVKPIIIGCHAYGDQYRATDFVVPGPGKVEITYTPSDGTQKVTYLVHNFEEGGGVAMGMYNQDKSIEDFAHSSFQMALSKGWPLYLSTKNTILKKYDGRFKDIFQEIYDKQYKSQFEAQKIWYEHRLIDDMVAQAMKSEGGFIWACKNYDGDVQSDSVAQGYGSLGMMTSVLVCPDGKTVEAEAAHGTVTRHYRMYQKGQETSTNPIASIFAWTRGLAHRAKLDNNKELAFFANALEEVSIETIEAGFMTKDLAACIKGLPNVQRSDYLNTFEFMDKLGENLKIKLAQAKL
IDH1 R132H, sequence (O75874 whole entry R132H): as the sequence (O75874 whole entry R132C) above, with C132H counted along it

SMILES	IC50 [1]	IC50 [2]
CCOc1ccc(Cl)cc1-n1c(C=C(C)C)c(C(=O)N2CC3CCC(C2)N3)cc(-c2nc(-c3ccc(Cl)cc3)cs2)c1=O (single isomer, unassigned) [Compound 113-1]	< 300 nM	< 300 nM
CCOc1ccc(Cl)cc1-n1c(C=C(C)C)c(C(=O)N2CC3CCC(C2)N3)cc(-c2nc(-c3ccc(Cl)cc3)cs2)c1=O (single isomer, unassigned) [Compound 113-2]	1000 to 5000 nM	300 to 1000 nM
CCc1ccc(Cl)cc1-n1c(C=C(C)C)c(C(=O)N2CCNCC2)cc(-c2nc(-c3ccc(Cl)cc3)cs2)c1=O [Compound 101]	< 300 nM	< 300 nM
CCc1ccc(OC)cc1-n1c(C=C(C)C)c(C(=O)N2CCNCC2)cc(-c2nc(-c3ccc(C(F)(F)F)cc3)cs2)c1=O [Compound 102]	< 300 nM	< 300 nM
CCc1ccc(OC)cc1-n1c(C=C(C)C)c(C(=O)N2CCNCC2)cc(-c2nc(-c3ccc(C(F)(F)F)nc3)cs2)c1=O [Compound 103]	< 300 nM	< 300 nM
CCc1ccc(OC)cc1-n1c(C=C(C)C)c(C(=O)N2CCNCC2)cc(-c2nc(-c3ccc(C(F)F)cc3)cs2)c1=O [Compound 104]	< 300 nM	< 300 nM
CCOc1ccc(Cl)c(-n2c(C=C(C)C)c(C(=O)N3CCNCC3)cc(-c3nc(-c4ccc(C(F)(F)F)cc4)cs3)c2=O)c1 [Compound 105]	< 300 nM	< 300 nM
CCOc1ccc(Cl)c(-n2c(C=C(C)C)c(C(=O)N3CCNCC3)cc(-c3nc(-c4ccc(C(F)F)cc4)cs3)c2=O)c1 [Compound 106]	< 300 nM	< 300 nM
CCOc1ccc(Cl)cc1-n1c(C=C(C)C)c(C(=O)N2CCN[C@@H](C)C2)cc(-c2nc(-c3ccc(C(F)(F)F)cc3)cs2)c1=O [Compound 107]	< 300 nM	< 300 nM
CCc1cccc(CC)c1-n1c(C=C(C)C)c(C(=O)N2CCN[C@@H](C)C2)cc(-c2nc(-c3ccc(C(F)F)cc3)cs2)c1=O [Compound 108]	< 300 nM	< 300 nM
CCc1cccc(CC)c1-n1c(C=C(C)C)c(C(=O)N2CCN[C@@H](C)C2)cc(-c2nc(-c3ccc(Cl)cc3)cs2)c1=O [Compound 109]	< 300 nM	< 300 nM
CCOc1ccc(Cl)cc1-n1c(C=C(C)C)c(C(=O)N2CCN[C@H](C)C2)cc(-c2nc(-c3ccc(C(F)(F)F)cc3)cs2)c1=O [Compound 110]	< 300 nM	< 300 nM
CCc1cccc(CC)c1-n1c(C=C(C)C)c(C(=O)N2CCN[C@H](C)C2)cc(-c2nc(-c3ccc(C(F)F)cc3)cs2)c1=O [Compound 111]	< 300 nM	< 300 nM
CCc1cccc(CC)c1-n1c(C=C(C)C)c(C(=O)N2CCN[C@H](C)C2)cc(-c2nc(-c3ccc(Cl)cc3)cs2)c1=O [Compound 112]	< 300 nM	< 300 nM
CCOc1ccc(Cl)cc1-n1c(C=C(C)C)c(C(=O)N2CC3CCC(C2)N3)cc(-c2nc(-c3ccc(Cl)cc3)cs2)c1=O [Compound 113]	< 300 nM	< 300 nM
CCc1ccc(OC)cc1-n1c(C=C(C)C)c(C(=O)N2CC3CCC(C2)N3)cc(-c2nc(-c3ccc(Cl)cc3)cs2)c1=O [Compound 114]	< 300 nM	< 300 nM
CCOc1ccc(Cl)cc1-n1c(C=C(C)C)c(C(=O)N2CC3CCC(C2)N3)cc(-c2nc(-c3ccc(C(F)(F)F)cc3)cs2)c1=O [Compound 115]	< 300 nM	< 300 nM
CCc1cccc(CC)c1-n1c(C=C(C)C)c(C(=O)N2CC3CCC(C2)N3)cc(-c2nc(-c3ccc(C(F)F)cc3)cs2)c1=O [Compound 116]	< 300 nM	< 300 nM
CCc1ccc(Cl)cc1-n1c(CC(C)C)c(C(=O)N2CCNCC2)cc(-c2nc(-c3ccc(C(F)F)cc3)cs2)c1=O [Compound 118]	300 to 1000 nM	300 to 1000 nM
CCc1cccc(CC)c1-n1c(C=C(C)C)c(C(=O)N2C[C@H]3CC[C@@H](C2)N3)cc(-c2nc(-c3ccc(C(F)F)nc3)cs2)c1=O [Compound 119]	< 300 nM	< 300 nM
CCc1ccc(Cl)cc1-n1c(C=C(C)C)c(C(=O)N2CCNCC2)cc(-c2nc(-c3ccc(C(F)(F)F)nc3)cs2)c1=O [Compound 122]	300 to 1000 nM	1000 to 5000 nM
CCc1cccc(CC)c1-n1c(C=C(C)C)c(C(=O)N2CCNC[C@H]2C)cc(-c2nc(-c3ccc(Cl)cc3)cs2)c1=O [Compound 123]	< 300 nM	< 300 nM
CCc1cccc(CC)c1-n1c(C=C(C)C)c(C(=O)N2CCNC[C@@H]2C)cc(-c2nc(-c3ccc(Cl)cc3)cs2)c1=O [Compound 124]	< 300 nM	< 300 nM
CCOc1ccc(Cl)cc1-n1c(C=C(C)C)c(C(=O)N2C[C@H]3CC[C@@H](C2)N3)cc(-c2nc(-c3ccc(C(F)F)cc3)cs2)c1=O [Compound 125]	< 300 nM	< 300 nM
CCOc1ccc(Cl)c(-n2c(C=C(C)C)c(C(=O)N3C[C@H]4CC[C@@H](C3)N4)cc(-c3nc(-c4ccc(Cl)cc4)cs3)c2=O)c1 [Compound 126]	< 300 nM	< 300 nM
CCOc1ccc(Cl)c(-n2c(C=C(C)C)c(C(=O)N3C[C@H]4CC[C@@H](C3)N4)cc(-c3nc(-c4ccc(C(F)(F)F)cc4)cs3)c2=O)c1 [Compound 127]	< 300 nM	< 300 nM

Results, then the compound that gave them:

IC50 [1]	IC50 [2]	SMILES
< 300 nM	< 300 nM	CCc1ccc(OC)cc1-n1c(C=C(C)C)c(C(=O)N2C[C@H]3CC[C@@H](C2)N3)cc(-c2nc(-c3ccc(Cl)cc3)cs2)c1=O (single isomer, unassigned) [Compound 114-1]
300 to 1000 nM	300 to 1000 nM	CCc1ccc(OC)cc1-n1c(C=C(C)C)c(C(=O)N2C[C@H]3CC[C@@H](C2)N3)cc(-c2nc(-c3ccc(Cl)cc3)cs2)c1=O (single isomer, unassigned) [Compound 114-2]
< 300 nM	< 300 nM	CCOc1ccc(Cl)c(-n2c(C=C(C)C)c(C(=O)N3CC4CCC(C3)N4)cc(-c3nc(-c4ccc(Cl)cc4)cs3)c2=O)c1 (single isomer, unassigned) [Compound 126-1]
1000 to 5000 nM	1000 to 5000 nM	CCOc1ccc(Cl)c(-n2c(C=C(C)C)c(C(=O)N3CC4CCC(C3)N4)cc(-c3nc(-c4ccc(Cl)cc4)cs3)c2=O)c1 (single isomer, unassigned) [Compound 126-2]
300 to 1000 nM	< 300 nM	CCc1ccc(Cl)cc1-n1c(C=C(C)C)c(C(=O)N2CC3CCC(C2)N3)cc(-c2nc(-c3ccc(Cl)cc3)cs2)c1=O (single isomer, unassigned) [Compound 133-1]
1000 to 5000 nM	300 to 1000 nM	CCc1ccc(Cl)cc1-n1c(C=C(C)C)c(C(=O)N2CC3CCC(C2)N3)cc(-c2nc(-c3ccc(Cl)cc3)cs2)c1=O (single isomer, unassigned) [Compound 133-2]
< 300 nM	< 300 nM	CCOc1ccc(Cl)c(-n2c(C=C(C)C)c(C(=O)N3CCNCC3)cc(-c3nc(-c4ccc(Cl)cc4)cs3)c2=O)c1 (single isomer, unassigned) [Compound 139-1]
300 to 1000 nM	1000 to 5000 nM	CCOc1ccc(Cl)c(-n2c(C=C(C)C)c(C(=O)N3CCNCC3)cc(-c3nc(-c4ccc(Cl)cc4)cs3)c2=O)c1 (single isomer, unassigned) [Compound 139-2]
< 300 nM	< 300 nM	CCOc1ccc(Cl)cc1-n1c(C=C(C)C)c(C(=O)N2CCNCC2)cc(-c2nc(-c3ccc(C#N)cc3)cs2)c1=O (single isomer, unassigned) [Compound 140-1]
< 300 nM	300 to 1000 nM	CCOc1ccc(Cl)cc1-n1c(C=C(C)C)c(C(=O)N2CCNCC2)cc(-c2nc(-c3ccc(C#N)cc3)cs2)c1=O (single isomer, unassigned) [Compound 140-2]
< 300 nM	< 300 nM	CCOc1ccc(Cl)cc1-n1c(C=C(C)C)c(C(=O)N2CC3CCC(C2)N3)cc(-c2nc(-c3ccc(C#N)cc3)cs2)c1=O (single isomer, unassigned) [Compound 141-1]
300 to 1000 nM	< 300 nM	CCOc1ccc(Cl)cc1-n1c(C=C(C)C)c(C(=O)N2CC3CCC(C2)N3)cc(-c2nc(-c3ccc(C#N)cc3)cs2)c1=O (single isomer, unassigned) [Compound 141-2]
	300 to 1000 nM	CCOc1ccc(Cl)cc1-n1c(C=C(C)C)c(C(=O)N2CCNCC2)cc(-c2nc(-c3ccc(Cl)cc3)cs2)c1=O (single isomer, unassigned) [Compound 143-1]
< 300 nM	< 300 nM	CCc1ccc(Cl)cc1-n1c(C=C(C)C)c(C(=O)N2CCNCC2)cc(-c2nc(-c3ccc(Cl)cc3)cs2)c1=O (single isomer, unassigned) [Compound 144-1]
< 300 nM	300 to 1000 nM	CCc1ccc(Cl)cc1-n1c(C=C(C)C)c(C(=O)N2CCNCC2)cc(-c2nc(-c3ccc(Cl)cc3)cs2)c1=O (single isomer, unassigned) [Compound 144-2]
	300 to 1000 nM	CCc1ccc(OC)cc1-n1c(C=C(C)C)c(C(=O)N2CCNCC2)cc(-c2nc(-c3ccc(Cl)cc3)cs2)c1=O (single isomer, unassigned) [Compound 151-2]

From patent US10836759B2, “Thiazole derivatives useful as mutant IDH1 inhibitors for treating cancer” (THE UNITED STATES OF AMERICA, AS REPRESENTED BY THE …, priority 2016, dated 2020)
